Results from BindingDB's records for doi:10.1021/acs.jmedchem.7b00359 (AstraZeneca, 2017).
pIC50: −log10 of the molar value.

What was measured:
[1] = target: T1, Zinc finger and BTB domain-containing protein 16 (Homo sapiens, UniProt Q05516); test: (§1) Inhibition of GAL4 DNA binding domain fused PLZF BTB domain (unknown origin) expressed in HEK 293T/17 cells after 24 hrs by Bright-Glo luciferase cell reporter assay
T1 sequence (Q05516 whole entry): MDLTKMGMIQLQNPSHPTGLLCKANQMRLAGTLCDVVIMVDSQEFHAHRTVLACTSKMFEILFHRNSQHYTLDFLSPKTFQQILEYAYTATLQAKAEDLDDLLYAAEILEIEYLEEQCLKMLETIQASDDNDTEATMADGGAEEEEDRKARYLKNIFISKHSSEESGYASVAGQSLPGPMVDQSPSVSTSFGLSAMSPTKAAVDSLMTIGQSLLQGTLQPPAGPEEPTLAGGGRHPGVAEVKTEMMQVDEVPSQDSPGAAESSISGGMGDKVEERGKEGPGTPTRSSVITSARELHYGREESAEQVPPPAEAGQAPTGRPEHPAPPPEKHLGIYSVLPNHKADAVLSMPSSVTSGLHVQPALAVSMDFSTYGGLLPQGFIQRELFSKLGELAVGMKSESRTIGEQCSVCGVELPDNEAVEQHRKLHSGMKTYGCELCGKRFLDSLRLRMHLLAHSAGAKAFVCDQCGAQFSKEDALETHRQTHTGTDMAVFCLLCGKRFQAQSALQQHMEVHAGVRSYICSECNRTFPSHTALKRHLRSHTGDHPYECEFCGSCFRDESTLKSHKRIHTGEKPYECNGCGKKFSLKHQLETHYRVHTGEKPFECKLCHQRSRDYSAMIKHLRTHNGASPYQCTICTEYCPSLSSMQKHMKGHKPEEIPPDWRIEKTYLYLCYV

[2] = target: T1, Zinc finger and BTB domain-containing protein 16; test: ChEBML_1665992; from the text: as §1

Row | pIC50 [1] | pIC50 [2] | SMILES
1 | < 4.52 |  | COc1cccc(CN2C(=O)CCc3cc4cc(c32)OC/C=C/CO[C@H]2C[C@@H](CO)N(C2)c2cc(n3ncc(C#N)c3n2)N4)c1
2 | < 4.52 |  | N#Cc1cnn2c3cc(nc12)N1C[C@H](C[C@H]1CO)OCCCCOc1cc(cc2c1NC(=O)CC2)N3
3 | < 4.52 |  | Cc1ccc(CN2C(=O)CCc3cc4cc(c32)OC/C=C/CO[C@H]2C[C@@H](CO)N(C2)c2cc(n3ncc(Cl)c3n2)N4)cc1
4 | < 4.52 |  | O=C1CCc2cc3cc(c2N1)OC/C=C/CO[C@H]1C[C@@H](CO)N(C1)c1cc(n2ncc(Cl)c2n1)N3
5 | < 4.52 |  | O=C(O)C[C@@H]1C[C@H]2CN1c1cc(n3ncc(Cl)c3n1)Nc1cc3c(c(c1)OC/C=C/CO2)N(CC1CC(F)(F)C1)C(=O)CC3
6 |  | < 4.52 | N#Cc1cnn2c3cc(nc12)N1C[C@H](C[C@H]1CO)OC/C=C/COc1cc(cc2c1NC(=O)CC2)N3
7 | < 4.52 |  | N#Cc1cnn2c3cc(nc12)N1CC[C@@H](C1)OCCCCOc1cc(cc2c1NC(=O)CC2)N3
8 | < 4.52 |  | O=C1CCc2cc3cc(c2N1Cc1ccccc1)OC/C=C/CO[C@H]1C[C@@H](CO)N(C1)c1cc(n2ncc(Cl)c2n1)N3
9 | < 4.52 |  | COc1cccc(CN2C(=O)CCc3cc4cc(c32)OC/C=C/CO[C@H]2C[C@@H](CO)N(C2)c2cc(n3ncc(Cl)c3n2)N4)c1
10 | < 4.52 |  | O=C1CCc2cc3cc(c2N1CC1CC1)OC/C=C/CO[C@H]1C[C@@H](CO)N(C1)c1cc(n2ncc(Cl)c2n1)N3
11 | < 4.52 |  | O=C1CCc2cc3cc(c2N1CCCN1CCOCC1)OC/C=C/CO[C@H]1C[C@@H](CO)N(C1)c1cc(n2ncc(Cl)c2n1)N3
12 | < 4.52 |  | O=C1CCc2cc3cc(c2N1)OCCCCO[C@H]1C[C@@H](CO)N(C1)c1cc(n2nccc2n1)N3
13 | < 4.52 |  | Cc1ccccc1CN1C(=O)CCc2cc3cc(c21)OC/C=C/CO[C@H]1C[C@@H](CO)N(C1)c1cc(n2ncc(Cl)c2n1)N3
14 | < 4.52 |  | O=C1CCc2cc3cc(c2N1Cc1ccncc1)OC/C=C/CO[C@H]1C[C@@H](CO)N(C1)c1cc(n2ncc(Cl)c2n1)N3
15 | < 4.52 |  | CN1C(=O)CCc2cc3cc(c21)OC/C=C/CO[C@H]1C[C@@H](CO)N(C1)c1cc(n2ncc(Cl)c2n1)N3
16 | < 4.52 |  | O=C1CCc2cc3cc(c2N1)OCCCCO[C@H]1C[C@@H](CO)N(C1)c1cc(n2ncc(Cl)c2n1)N3
17 | < 4.52 |  | O=C1CCc2cc3cc(c2N1CC1CC(F)(F)C1)OC/C=C/CO[C@H]1C[C@@H](CO)N(C1)c1cc(n2ncc(Cl)c2n1)N3
